Test results from publication PMC6158189, “A pharmacological probe identifies cystathionine β-synthase as a new negative regulator for ferroptosis” (Cell Death & Disease, 2018).
Several values for one entry are separate records, joined by “and”; a condition that tells them apart may be missing. Equal values may be shown once. Read-outs that look alike come from different tables or passages of the source.

Experiments:
[1] = target: T1, hCBS (Homo sapiens, UniProt P35520); assay: enzyme kinetics of hCBS inhibition; type: biochemical
T1 construct: GST (N); made in house; host or cells: E. coli BL21
T1 sequence (P35520 1-551): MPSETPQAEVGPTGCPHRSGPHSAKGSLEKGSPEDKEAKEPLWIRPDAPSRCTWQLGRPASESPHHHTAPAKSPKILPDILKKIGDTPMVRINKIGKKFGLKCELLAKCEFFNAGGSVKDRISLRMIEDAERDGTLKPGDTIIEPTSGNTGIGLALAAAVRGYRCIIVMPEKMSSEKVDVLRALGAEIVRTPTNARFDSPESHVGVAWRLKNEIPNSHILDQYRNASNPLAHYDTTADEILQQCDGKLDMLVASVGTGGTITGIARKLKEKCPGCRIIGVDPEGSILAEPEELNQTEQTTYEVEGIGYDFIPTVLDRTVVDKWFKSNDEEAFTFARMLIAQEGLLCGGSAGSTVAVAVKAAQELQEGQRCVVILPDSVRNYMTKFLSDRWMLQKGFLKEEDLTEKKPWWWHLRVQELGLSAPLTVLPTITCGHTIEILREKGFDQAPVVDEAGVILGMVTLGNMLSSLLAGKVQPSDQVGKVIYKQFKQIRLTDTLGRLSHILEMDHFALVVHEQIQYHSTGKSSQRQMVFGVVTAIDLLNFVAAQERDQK
Method: Figure S2. The mode of action of CH004 in inhibiting hCBS. […] After incubation with DMSO or CH004 at 10 μM for 40 min, hCBS (20 μM) was diluted 200-fold and the activity was measured according to the standard assay protocol (Materials and Methods). The data are presented as percentages of control (CTR; DMSO, 100%) and shown as means ± SDs (n = 5). The effects of 0.05 and 10 μM CH004 on hCBS (100 nM) without pre-incubation were defined as positive control (PC) and negative control (NC), respectively. (B) Inhibition of hCBS by CH004 as a function of PLP concentration with Cys (20 mM) together with Hcys (10 mM) as substrates (non-competitive inhibition constant αKi=15.2 ± 4.9 μM). (C) Inhibition of hCBS by CH004 as a function of Cys concentration in the presence of 100 μM PLP and the absence of Hcys (mixed inhibition constant αKi=26.4 ± 8 μM). (D) Inhibition of hCBS by CH004 as a function of Hcys concentration in the presence of 20 mM Cys and 100 μM PLP (mixed inhibition constant αKi’=7.2 ± 1.6 μM). Each point in the Lineweaver-Burk plots represents the means of triplicate. The αKi or αKi’ values were calculated by using the non-linear fitting method for enzyme kinetics in GraphPad Prism 5. (E) Surface Plasmon Resonance assays analysis of the binding of CH004 to hCBS. Solutions with various concentrations of CH004 (0.097–12.5 µM) were injected into the chamber with a hCBS-coated sensor chip. The change of response units is shown over time. Dissociation constants for CH004 (KD) were calculated by using Biacore evaluation software (Materials and Methods).

[2] = system: HEK293T cells; assay: intracellular ROS (DCFH-DA, flow cytometry); type: cell-based; settings: 12 h
Method: Fig. 5 In situ reduction of CBS activity and H2S in mitochondria by CH004 is coupled with an increase of intracellular ROS. a, b CH004 dose-dependently elevates ROS levels in both HepG2 (a) and HEK293T cells (b). The cells were treated with CH004 for 12 h or with 1 mM H2O2 for 30 min before the staining with DCFH-DA (Molecular Probes) and the analyzsis by flow cytometry (“Materials and Methods” section). Means ± SDS (n = 3). […] HepG2 cells were incubated with indicated inhibitors for 8 h before staining with the mitochondria tracker Mito-tracker® Green (Invitrogen) and the AzMC probe. Cyan represents the colocalization of H2S (blue) and the mitochondria tracker (green). Bars: 50 μm. d hCBS co-localizes with the mitochondria in HepG2 and HEK293T cells. HepG2 and HEK293T cells were stained with an anti-CBS antibody (3E1, 1:200; Abnova) for hCBS (red), Mito-tracker® Green for the mitochondria (green) and DAPI for the nucleus (blue). […]
To investigate the intracellular ROS levels, HEK293T or HepG2 cells were seeded in 6-well plates for one day, then incubated with the indicated inhibitors and 1 mM H2O2 for 12 h and 30 min, respectively. After trypsinization and one wash in PBS, the collected cells were resuspended in PBS and incubated with 100 μM probe DCFH-DA for 30 min at 37 °C before being analyzed using an LSR Fortessa flow cytometer.

## Cn1nc(Cc2ccccc2)nc2c(=O)n(C)c(=O)nc1-2 [CH004, 3-benzyl-1,6-dimethylpyrimido[5,4-e][1,2,4]triazine-5,7(1H,6H)-dione]
[1]
  mode of inhibition toward Cys and Hcys: mixed-type inhibition
  mode of inhibition toward PLP: noncompetitive inhibition
[1]; 100 μM PLP, absence of Hcys, read-out: αKi toward Cys (mixed inhibition constant)
  Ki: ~26.4 µM and 26.4 µM
[1]; 20 mM Cys, 100 μM PLP, read-out: αKi’ toward Hcys (mixed inhibition constant)
  Ki: ~7.2 µM and 7.2 µM
[1]; Cys 20 mM and Hcys 10 mM as substrates, read-out: αKi toward PLP (non-competitive inhibition constant)
  Ki: ~15.2 µM and 15.2 µM
[2]
  maximum increase of cellular ROS: ~ 2 fold
